System: COX-2
Assay: COX-2 protein expression in RAW264.7 cell induced by LPS (Western blot)
Format: cell-based, mouse
Conditions: LPS 1 μg/ml, FIG. 4A
Method: In order to determine the inhibitory effect on the COX-2 protein expression and the reproduced level of PGE2, following test was performed by the method disclosed in the literature (Chen, C, et al., 1999, Involvement of p 38 mitogen-activated protein kinase in lipopolysaccharide-induced iNOS and COX-2 expression in J774 macrophage, Immunology, 97, pp 124-129)
The expressed level of COX-2 in RAW264.7 cell induced by LPS (1 μg/ml) was determined by using Western blot analysis according to the method disclosed in Experimental Example 3.

SMILES: CO[C@@H]1C[C@H]2[C@H](OC(=O)c3ccc(O)cc3)[C@@H]3O[C@]3(CO)[C@H]2[C@H](O[C@@H]2O[C@H](CO)[C@@H](O)C(O)[C@H]2O)O1 (stereo partly drawn) [KS-513, (1aS, 1bS,2S,4S,5aR,6S,6aS)-1a-(hydroxymethyl)-4-methoxy-2-(((2S,3R,5S,6R)-3,4,5-trihydroxy-6-(hydroxymethyl)tetrahydro-2H-pyran-2-yl)oxy)octahydrooxireno[2′,3′:4,5]cyclopenta[1,2-c]pyran-6-yl 4-hydroxybenzoate]
- expressed level of COX-2 protein: reduced in a dose dependent manner
